Results reported in article doi:10.1101/108654v1 (biorxiv, 2017).

How the values were obtained:
MDA MB-231 = experiment: cells; design: species or system human cancer cell lines; conditions: Homo sapiens, MDA-MB-231, 48 h, read-out: MDA MB-231
in vitro = conditions: human, mrc5 cells
MCF7 = experiment: cells; design: species or system human cancer cell lines; conditions: Homo sapiens, MCF7, 48 h, read-out: MCF7
HepG2 = experiment: cells; design: species or system human cancer cell lines; conditions: Homo sapiens, HepG2, 48 h, read-out: HepG2
SKOV3 = experiment: cells; design: species or system human cancer cell lines; conditions: Homo sapiens, SK-OV-3, 48 h, read-out: SKOV3
DU145 = experiment: cells; design: species or system human cancer cell lines; conditions: Homo sapiens, DU-145, 48 h, read-out: DU145
porcine brain tubulin = porcine brain tubulin (Sus scrofa, UniProt P02550+P02554); experiment: fluorescence-based tubulin polymerization assay; type: biochemical; conditions: read-out: % inhibition at 3 μM
Sequence of porcine brain tubulin (P02550 whole entry): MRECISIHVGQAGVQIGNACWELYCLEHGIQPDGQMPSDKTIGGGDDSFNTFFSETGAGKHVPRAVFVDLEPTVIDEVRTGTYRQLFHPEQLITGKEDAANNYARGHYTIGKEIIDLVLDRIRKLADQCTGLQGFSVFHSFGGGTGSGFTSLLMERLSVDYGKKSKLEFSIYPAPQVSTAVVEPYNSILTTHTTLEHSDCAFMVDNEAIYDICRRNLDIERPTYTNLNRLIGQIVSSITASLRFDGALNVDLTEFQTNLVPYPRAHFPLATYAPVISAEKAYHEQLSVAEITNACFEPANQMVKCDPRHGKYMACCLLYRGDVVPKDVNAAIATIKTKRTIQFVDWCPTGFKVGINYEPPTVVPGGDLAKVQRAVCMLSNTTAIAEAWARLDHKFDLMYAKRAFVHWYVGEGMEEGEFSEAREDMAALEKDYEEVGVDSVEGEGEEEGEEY
Sequence of porcine brain tubulin (P02554 whole entry): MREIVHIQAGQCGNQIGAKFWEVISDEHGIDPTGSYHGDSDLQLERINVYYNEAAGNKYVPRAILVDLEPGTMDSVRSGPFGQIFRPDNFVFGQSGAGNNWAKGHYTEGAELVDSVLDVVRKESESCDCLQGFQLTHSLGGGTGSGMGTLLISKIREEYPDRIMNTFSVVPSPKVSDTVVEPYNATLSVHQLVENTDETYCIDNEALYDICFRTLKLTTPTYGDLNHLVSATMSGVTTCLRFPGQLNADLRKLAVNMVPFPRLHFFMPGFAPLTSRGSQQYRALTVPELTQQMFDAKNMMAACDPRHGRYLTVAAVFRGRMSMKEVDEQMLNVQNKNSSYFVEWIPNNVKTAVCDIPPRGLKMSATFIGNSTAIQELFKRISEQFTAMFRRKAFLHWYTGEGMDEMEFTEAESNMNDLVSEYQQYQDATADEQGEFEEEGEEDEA

| GI50 (MCF7) [µM] | GI50 (HepG2) [µM] | GI50 (SKOV3) [µM] | GI50 (DU145) [µM] | inhibition at 3 µM (porcine brain tubulin) [%] | Compound | GI50 (MDA MB-231) [µM] | CC50 at 48 h (in vitro) [µM] |
| --- | --- | --- | --- | --- | --- | --- | --- |
| > 10 | > 10 | 0.15 ± 0.05 | > 10 |  | Clc1ccc2nc(Cl)nc(-c3ccccc3Cl)c2c1 [ATS-1] | > 10 | 136 ± 1.63 |
| > 10 | > 10 | 0.47 ± 0.06 | 2.27 ± 0.37 |  | Clc1ccc2nc(NN=Cc3c(Cl)cccc3Cl)nc(-c3ccccc3)c2c1 [ATS-3] | 8.84 ± 0.12 | 159 ± 1.06 |
| > 10 | 1.35 ± 0.45 | 2.75 ± 0.35 | 0.81 ± 0.07 |  | O=[N+]([O-])c1ccc(C=NNc2nc(-c3ccccc3)c3cc(Cl)ccc3n2)o1 [ATS-4] | > 10 | 162 ± 1.82 |
| 0.6 ± 0.07 | > 10 | 10.3 ± 0.62 | > 10 | 59 | Clc1ccc2nc(Nc3c(Cl)cccc3Cl)nc(-c3ccccc3)c2c1 [ATS-7] | > 10 | 141 ± 1.41 |

The remaining lines, values behind:

| Compound | GI50 (MCF7) [µM] | GI50 (HepG2) [µM] | GI50 (SKOV3) [µM] | GI50 (DU145) [µM] | inhibition at 3 µM (porcine brain tubulin) [%] | GI50 (MDA MB-231) [µM] | CC50 at 48 h (in vitro) [µM] |
| --- | --- | --- | --- | --- | --- | --- | --- |
| COc1cccc2c1C(=O)c1c(O)c3c(c(O)c1C2=O)C[C@@](O)(C(=O)CO)C[C@@H]3O[C@H]1C[C@H](N)[C@H](O)[C@H](C)O1 [Doxorubicin] | < 0.1 | < 0.1 | 1.17 ± 0.52 | < 0.1 |  | < 0.1 |  |
| COC(=O)Nc1nc2ccc(C(=O)c3cccs3)cc2[nH]1 [nocodazole] | < 0.1 | 7.06 ± 0.54 | < 0.1 | 0.17 ± 0.07 |  | 2.8 ± 0.51 | 129 ± 1.48 |
